Values belong to the compound of their own block, whether it stands above or below them.
Legend:
[1] = system: SH-SY5Y cells; assay: LDH release, 6-OHDA-induced toxicity; settings: 100 μM 6-OHDA, 24 h
[2] = target: T1, MAO-B (Mus musculus, UniProt Q8BW75); assay: In vitro MAO inhibition in mouse brain homogenate, benzylamine substrate; format: biochemical; settings: substrate of MAO B, control mouse brain homogenates
T1 construct: Brain homogenates from male Swiss mice were first characterized in terms of their MAOs activity; from tissue; host or cells: whole brain homogenate of male Swiss mice
T1 sequence (Q8BW75 1-520): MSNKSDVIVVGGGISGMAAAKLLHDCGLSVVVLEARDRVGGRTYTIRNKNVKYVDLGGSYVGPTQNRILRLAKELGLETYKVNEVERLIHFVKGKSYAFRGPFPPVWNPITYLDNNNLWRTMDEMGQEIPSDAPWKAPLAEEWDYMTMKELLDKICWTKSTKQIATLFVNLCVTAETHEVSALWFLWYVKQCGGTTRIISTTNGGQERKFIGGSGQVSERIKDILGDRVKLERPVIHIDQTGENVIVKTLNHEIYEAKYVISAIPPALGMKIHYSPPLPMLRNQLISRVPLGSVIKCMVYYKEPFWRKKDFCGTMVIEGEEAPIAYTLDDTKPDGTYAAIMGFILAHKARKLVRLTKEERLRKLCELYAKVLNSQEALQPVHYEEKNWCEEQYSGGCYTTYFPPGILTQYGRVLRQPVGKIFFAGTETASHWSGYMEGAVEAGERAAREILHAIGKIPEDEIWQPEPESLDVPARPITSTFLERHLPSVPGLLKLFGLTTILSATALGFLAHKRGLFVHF

[3] = target: T2, 5-HT1A receptor (Rattus norvegicus, UniProt P19327); assay: [3H]-8-OH-DPAT radioligand binding assay, rat cortex membranes; settings: [3H]-8-OH-DPAT binding, means ±SEM
T2 construct: from tissue; host or cells: rat (male Wistar) brain cortex membranes
T2 sequence (P19327 1-422): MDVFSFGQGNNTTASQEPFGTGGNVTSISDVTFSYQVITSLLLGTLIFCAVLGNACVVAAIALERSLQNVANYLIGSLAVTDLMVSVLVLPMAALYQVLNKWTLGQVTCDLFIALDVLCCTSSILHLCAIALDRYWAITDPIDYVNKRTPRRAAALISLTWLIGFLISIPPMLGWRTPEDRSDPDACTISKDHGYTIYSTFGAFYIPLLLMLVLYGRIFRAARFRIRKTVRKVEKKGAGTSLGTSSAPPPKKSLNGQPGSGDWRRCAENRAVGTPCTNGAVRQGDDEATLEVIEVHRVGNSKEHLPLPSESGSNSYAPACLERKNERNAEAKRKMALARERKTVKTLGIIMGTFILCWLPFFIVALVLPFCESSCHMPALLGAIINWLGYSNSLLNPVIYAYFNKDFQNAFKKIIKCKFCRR

[4] = target: T3, hMAO-A (Homo sapiens, UniProt P21397); assay: hMAO-A inhibition, HRP–Amplex Red coupled fluorimetric assay; format: biochemical; settings: supplement csv; RA at 100 micromolar
T3 construct: purchased Sigma Aldrich; host or cells: baculovirus-infected insect cells (BTI-TN-5B1-4)
T3 sequence (P21397 1-527): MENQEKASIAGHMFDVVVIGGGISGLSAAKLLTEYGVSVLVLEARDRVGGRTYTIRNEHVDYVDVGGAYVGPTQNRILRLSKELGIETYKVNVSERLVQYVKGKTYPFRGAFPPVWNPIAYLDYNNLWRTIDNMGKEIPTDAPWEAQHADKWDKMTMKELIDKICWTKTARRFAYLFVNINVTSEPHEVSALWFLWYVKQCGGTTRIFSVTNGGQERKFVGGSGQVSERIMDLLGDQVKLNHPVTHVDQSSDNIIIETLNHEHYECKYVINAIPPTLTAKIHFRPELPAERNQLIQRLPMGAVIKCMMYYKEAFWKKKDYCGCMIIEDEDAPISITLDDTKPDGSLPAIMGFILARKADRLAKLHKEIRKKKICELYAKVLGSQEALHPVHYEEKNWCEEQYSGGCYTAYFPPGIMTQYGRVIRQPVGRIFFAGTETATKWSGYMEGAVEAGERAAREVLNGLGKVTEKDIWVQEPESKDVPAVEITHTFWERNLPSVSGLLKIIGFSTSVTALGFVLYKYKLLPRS

[5] = Thermodynamic solubility in PBS; format: physicochemical; settings: PBS (pH 7.4), 37 °C, 24 h, hydrochloride salts
[6] = system: Swiss mice; assay: Body mass and survival during 10-day treatment; format: in vivo; settings: 0.3 mg/kg ip daily
Procedure: Figure S9. In vivo effects of chronic treatment on body mass. Body mass variation (Percent weight) (mean ±SEM) in mice throughout the 10-day i.p. treatment with 69 (0.3 mg/kg; n = 10), 100 (0.3 mg/kg; n = 8) and saline (SAL; n = 16). Data are means ±SEM. All animals survived the treatments.

[7] = system: SH-SY5Y cells; assay: MTS cytotoxicity assay; settings: 24 h, 5 μM and 10 μM
[8] = system: Swiss mice; assay: Locomotor activity test; format: in vivo, mouse
[9] = system: MAO-A/B; assay: In vitro MAO inhibition in mouse brain homogenate, p-tyramine substrate; format: biochemical; settings: 50 μM compound, homogenate from nontreated mice
[10] = Chemical stability and photoisomerization by proton NMR in D2O; format: physicochemical; settings: hydrochloride salts, more than 1 year at room temperature protected from sunlight, 1H NMR in D2O
Procedure: Possible chemical instability and photoisomerization of E/Z isomers were also addressed as these are known liabilities of stilbene derivatives.[23] Proton NMRs of 69 (cis derivative), 84 (trans derivative), and 100 (ethyl analogue) in the form of hydrochloride salts were recorded in D2O (Figures S1–S3). […] The samples dissolved in the NMR tubes were then left on the benchtop exposed to natural daylight for 7 days, which could induce photoisomerization. […] Altogether, these studies imply reasonable stability of the compounds.
Figure S2. […] Compound 84 (trans isomer, […]
hydrochloride salt) was dissolved in D2O and the spectra were recorded at time 0 h, 1 h, 24 h and 7 days. Sample was exposed to day light in between the measurement, which could induce photoisomerization and potentially also chemical degradation.
The sample was previously stored at […]

[11] = target: T1, MAO-B; assay: Ex vivo MAO inhibition in brain homogenates of treated mice, benzylamine substrate; settings: 10 days 0.3 mg/kg ip, with or without haloperidol, two-way ANOVA
[12] = system: Swiss mice; assay: Haloperidol-induced catalepsy test; format: in vivo, mouse
[13] = system: Swiss mice; assay: Hole–board test

SMILES: NCCc1cc(O)c(O)cc1O [6-OHDA, 6-hydroxydopamine]
LDH release vs control [1]: 135%

K0.5 [2]: 0.268 ± 0.017 mM
SMILES: NCc1ccccc1 [Benzylamine]

SMILES: C#CCN1CCC(CCc2ccc(C(F)(F)F)cc2)CC1 [Compound 100, 1-(Prop-2-yn-1-yl)-4-(4-(trifluoromethyl)phenethyl)piperidine]
Ki [3]: 25.9 ± 1.5 µM
IC50(MAO-A) class [4]: na (na-not_active(RA_at_100micromolar>50%))
thermodynamic solubility [5]: ≥ 16.3 g/250 mL
body mass variations versus control mice [6]: No significant differences
cytotoxic effects [7]: no significant cytotoxic effects
locomotor activity ([8]; 10 days, 0.3 mg/kg ip daily): did not affect
locomotor activities ([8]; acute ip doses of ≥10 mg/kg): reduced
residual activity, p-tyramine (0.5 mM), in vitro [9]: 59.4 ± 0.2%
chemical stability on storage [10]: no signs of chemical instability
ex vivo MAO-B activity after haloperidol-induced catalepsy test [11]: decreased MAO-B activity
latency time to descent from the bar ([12]; 10-day i.p. 0.3 mg/kg daily): increased significantly
reversal of haloperidol-induced catalepsy ([12]; acute i.p. 3 mg/kg): did not reverse the catalepsy
parameters of the hole–board test ([13]; 10 days, 0.3 mg/kg ip daily): did not affect
hole–board test parameters ([13]; acute ip doses of ≥10 mg/kg): reduced

Reference: PMC7307930, “Stereoselective Activity of 1-Propargyl-4-styrylpiperidine-like Analogues That Can Discriminate between Monoamine Oxidase Isoforms A and B” (Journal of Medicinal Chemistry, 2020)
